Laboratory results taken from ChEMBL document CHEMBL5380871.

What was measured:
[1] = target: T1, Complement C1r subcomponent (Homo sapiens, UniProt P00736); assay: Binding affinity to C1R (unknown origin) assessed as inhibition constant
T1 sequence (P00736 whole entry): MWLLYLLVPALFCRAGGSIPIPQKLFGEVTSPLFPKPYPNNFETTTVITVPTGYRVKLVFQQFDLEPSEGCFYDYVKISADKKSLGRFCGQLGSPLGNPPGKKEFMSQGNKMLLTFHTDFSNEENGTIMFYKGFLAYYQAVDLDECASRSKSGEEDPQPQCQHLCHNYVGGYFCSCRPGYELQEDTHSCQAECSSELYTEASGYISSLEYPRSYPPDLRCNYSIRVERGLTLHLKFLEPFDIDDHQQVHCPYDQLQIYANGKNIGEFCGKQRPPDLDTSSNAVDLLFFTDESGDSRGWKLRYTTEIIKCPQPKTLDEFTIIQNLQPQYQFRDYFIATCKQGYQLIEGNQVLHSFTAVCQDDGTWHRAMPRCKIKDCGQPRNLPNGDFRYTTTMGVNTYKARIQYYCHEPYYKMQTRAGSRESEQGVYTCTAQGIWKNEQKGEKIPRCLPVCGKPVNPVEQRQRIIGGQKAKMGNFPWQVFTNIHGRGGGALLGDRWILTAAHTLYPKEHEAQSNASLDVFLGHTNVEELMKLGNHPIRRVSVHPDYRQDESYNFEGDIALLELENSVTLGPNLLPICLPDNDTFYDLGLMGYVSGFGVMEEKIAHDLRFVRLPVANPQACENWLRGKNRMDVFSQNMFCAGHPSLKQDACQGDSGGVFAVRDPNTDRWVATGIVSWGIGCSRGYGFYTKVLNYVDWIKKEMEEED

Prothrombin = Prothrombin (Homo sapiens, UniProt P00734); assay: Binding affinity to thrombin (unknown origin) assessed as inhibition constant
Trypsin = Trypsin (Homo sapiens, UniProt P07477+P07478+P35030); assay: Binding affinity to trypsin (unknown origin) assessed as inhibition constant; type: protein assay
Complement factor D = Complement factor D (Homo sapiens, UniProt P00746); assay: Binding affinity to factor D (unknown origin) assessed as inhibition constant
[2] = target: T2, Complement C1s subcomponent (Homo sapiens, UniProt P09871); assay: Binding affinity to human C1S assessed as inhibition constant
T2 sequence (P09871 whole entry): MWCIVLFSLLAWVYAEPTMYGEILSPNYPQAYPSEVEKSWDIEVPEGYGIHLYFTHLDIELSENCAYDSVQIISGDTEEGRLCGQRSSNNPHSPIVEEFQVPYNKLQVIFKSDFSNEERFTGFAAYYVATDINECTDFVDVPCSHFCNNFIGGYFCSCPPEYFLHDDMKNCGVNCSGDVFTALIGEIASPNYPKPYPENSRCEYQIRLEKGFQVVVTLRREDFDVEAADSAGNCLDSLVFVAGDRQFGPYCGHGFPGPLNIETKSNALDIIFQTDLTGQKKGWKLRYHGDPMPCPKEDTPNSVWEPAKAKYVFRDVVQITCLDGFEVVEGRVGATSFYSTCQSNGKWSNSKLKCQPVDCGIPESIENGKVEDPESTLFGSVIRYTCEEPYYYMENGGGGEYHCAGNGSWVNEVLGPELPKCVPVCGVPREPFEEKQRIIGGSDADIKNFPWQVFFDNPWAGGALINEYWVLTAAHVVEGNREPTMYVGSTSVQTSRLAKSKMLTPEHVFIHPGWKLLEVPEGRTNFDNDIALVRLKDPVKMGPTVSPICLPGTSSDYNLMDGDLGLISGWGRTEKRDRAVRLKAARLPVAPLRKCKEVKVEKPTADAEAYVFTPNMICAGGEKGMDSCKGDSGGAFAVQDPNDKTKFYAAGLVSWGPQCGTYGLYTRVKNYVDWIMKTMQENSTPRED

[3] = Inhibition of human recombinant kallikrein using Pro-Phe-Arg-AMC as substrate pretreated with compound followed by substrate addition incubated for 60 mins by multilabel plate reader method

Chain of Complement factor D (P00746 whole entry): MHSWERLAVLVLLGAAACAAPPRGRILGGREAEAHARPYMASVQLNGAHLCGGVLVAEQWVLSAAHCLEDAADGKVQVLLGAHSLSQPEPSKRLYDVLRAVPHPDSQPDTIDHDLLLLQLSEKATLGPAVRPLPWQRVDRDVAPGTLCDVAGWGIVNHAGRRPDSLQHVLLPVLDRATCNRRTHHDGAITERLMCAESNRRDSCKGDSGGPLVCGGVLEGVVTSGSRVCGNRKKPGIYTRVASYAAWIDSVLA

Ki [1] [µM] | Ki (Prothrombin) [µM] | Ki (Trypsin) [µM] | Ki (Complement factor D) [µM] | Ki [2] [µM] | IC50 [3] [µM] | Compound
≥ 50 | > 50 | 0.18 | 3.7 | 0.07 |  | CCCc1c(-c2csc(-c3cc(C(=N)N)sc3SC)n2)cnn1-c1ccccn1
 |  |  |  |  | > 30 | Cc1cc([C@H]2CN(c3cc(F)c4c(N)nncc4c3)CCN2c2cccc(F)c2)no1
